Experimental data taken from patent US7781580B2, “Stilbene derivatives as new cancer therapeutic agents” (Virginia Commonwealth University, priority 2007, dated 2010).

Legend:
[1] = system: SNU423 hepatocellular carcinoma cells; assay: Alamar Blue cell growth inhibition, SNU423; type: cell-based
Procedure, shortened: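 Cells at 50% confluence were treated for 48 h in triplicate with 0-10 μM compound or 0.1% DMSO vehicle. Alamar Blue was added at 1/10 volume for 2 h, and absorbance at 570 and 600 nm gave % growth via the manufacturer's extinction-coefficient formula relative to vehicle controls.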

[2] = system: c-kit-positive progenitor cells (engraftment); assay: bone marrow transplantation of stilbene-treated progenitor cells; type: in vivo, mice; conditions: cells incubated at 0.1 or 0.5 μM for 16 hours
Method: FIG. 16. (a) Effect of stilbenes in normal bone marrow progenitor cells. c-kit-positive bone marrow mononuclear cells were isolated for incubation with stilbenes 4a or 4c at 0.1 or 0.5 […] for 16 hours. Cells were harvested for fixation and PI staining. Cell cycle analysis and quantification of the subG0/1 population were analyzed by FACScan flow cytometry. The percentages of the apoptotic population were indicated. Shown are the representatives of two independent experiments. (b) Effect of stilbenes in HL60 cells as positive control. HL60 cells were treated with stilbenes 4a or 4c in the same medium as the positive control. (c) Colony forming assay of the stilbene-treated c-kit-positive cells. […] Cells were incubated for 14 days and the grossly visible colonies were counted. […] Mice were monitored for survival and lineage-specific donor engraftment by flow cytometry analysis of peripheral blood. […]
C57BL/6J (H2b, CD45.2) mice served as bone marrow donors and were between 6-10 weeks of age. […] Peripheral blood engraftment in recipient mice was assessed by flow cytometry analysis for CD3+ (145-2C11; BD Biosciences, San Jose, Calif.) T-cells, B220+ (RA3-6B2) B-cells, Mac1+ (M1/70.15) monocytes, and Gr1+ (8C5) granulocytes and distinguished between donor versus recipient with anti-CD45.1 (A20) and anti-CD45.2 (104) monoclonal antibodies.

[3] = system: HL60 leukemic cells (xenograft); assay: HL60 xenograft model in SCID mice; type: in vivo
Method: FIG. 20. Effect of stilbene 4a in vivo. (a) Induction of cell death in vivo by stilbene 4a. Tumor was harvested at 24 hours after treatment for TUNEL assay. (b) Histological sections of tumor. Tumor harvested at 24 hours after injection of stilbene 4a was analyzed by H & E staining. The area with lighter color is the necrotic region. (c) Tumor growth suppression. SCID mice were injected subcutaneously with 5×10^6 HL60 cells at each flank. Once the diameter of tumor reached 5 mm in diameter in majority of mice, mice were treated with 5 daily injection of stilbene 4a. Tumor volume was calculated by the long and short axis of tumor and plotted against days. Each group contains 5 mice.
HL60 leukemic cells were injected subcutaneously into ICR-scid mice (Taconic Inc.) on flank. After tumor becomes visible after 12 days, Mice will be treated with stilbene 4a by intravenous injection after dissolved in 10% DMSO in normal saline. For acute effect study, mice were sacrificed 24 hours after injection and tumor and bone marrow were harvested for histological staining and flow cytometry analysis. For long term effect study, stilbenes were injected intravenously from tail veins at 2 or 10 mg/kg for 5 consecutive days. Negative control mice were treated with 10% DMSO in normal saline and positive control mice were treated with Ara-C at 5 mg/kg. Tumor volume was measured twice a week for 4 weeks by the long and short axes of tumor. Volume was calculated by the formula ab^2/2, in which “a” represents the long axis and “b” the short axis of tumor. Mice were euthanized if the calculated tumor reached 10% of the body weight.

SMILES: COc1cc(/C=C\c2ccc(OC)c(N)c2)cc(OC)c1 [4a, (Z)-5-[2-(3,5-Dimethoxy-phenyl)-vinyl]-2-methoxy-phenylamine]
- relative potency ([1]; SNU423): much more potent than the trans counterparts
- effective concentration, blocking cell proliferation ([1]; SNU423, 48 hours): 0.03 µM
- radioprotection of lethally irradiated mice by treated progenitor cells [2]: all mice were rescued from lethal irradiation
- tumor growth suppression ([3]; 10 mg/kg intravenously daily for 5 days, 12 days after the first injection): 50%
- percentage of apoptosis in tumor (TUNEL) ([3]; 10 mg/kg intravenously, 24 hours): 22%
- percentage of apoptosis in tumor (TUNEL) ([3]; 50 mg/kg intravenously, 24 hours): 62%
- percentage of apoptosis in tumor (TUNEL) ([3]; 100 mg/kg intravenously, 24 hours): 58%
- bone marrow TUNEL (acute marrow toxicity) ([3]; 50 and 100 mg/kg, 24 hours): No increase in TUNEL positive cells was observed
